Measured values taken from PMC5906549, “Cathelicidin-Derived Antimicrobial Peptides Inhibit Zika Virus Through Direct Inactivation and Interferon Pathway” (Frontiers in Immunology, 2018).
Peptide text beside a SMILES is read from it.

Key:
[1] = Cell viability MTS assay in Vero cells; settings: African green monkey
Experimental: Cell viability was examined by the CellTiter 96 ®Aqueous One Solution Cell Proliferation Assay (Promega, Madison, WI, USA). Vero cells and astrocytes were seeded into 96-well tissue culture plates (Fisher Scientific) and treated with fresh growth medium containing different concentrations of each peptide for 2 or 4 days at 37°C. At the experimental end point, MTS [3-(4,5-dimethylthiazol-2-yl)-5-(3-carboxymethoxyphenyl)-2-(4-sulfophenyl)-2H-tetrazolium] was added to the cultures and incubated for 1 h. The absorbance at 490 nm was recorded through BioTek Gen5 data analysis software (Winooski), VT, optical density (OD) values were used as a representation of cell viability.
(A) Vero cells were treated with doses of peptides ranging from 1 to 50 µM. After 24 h, the cultures were washed and treated with same doses of peptides in fresh medium for another 24 h. Cell viability was determined by a colorimetric MTS assay. Results shown are the averages ±SD of experiments performed in triplicate. Data were analyzed by non-linear regression. The EC50 was assessed for each of the antimicrobial peptides. (B) Vero cells were treated with doses of peptides ranging from 0.4 to 10 µM for 2 h then infected with ZIKV at the MOI of 0.5. After 24 h, the cultures were washed and treated with same doses of peptides in fresh medium for another 24 h. ZIKA RNA was detected in total cellular RNA through real-time RT-PCR. Data were normalized to GAPDH and presented as fold change (in log scale) compared with ZIKV group. ** p < 0.01 and *** p < 0.001, as compared with the ZIKV group without the peptide treatment (ANOVA, N = 3).
A, B) Vero cells were treated with 10 µM AMPs for 2 days or 4 days as outlined in the figure. For 4-day treatment, Vero cells were repeatedly treated with 10 µM AMPs at 2-day post-treatment. At the experimental end point, cell viability was determined by a colorimetric MTS assay CellTiter 96® AQueous One Solution Assay (Promega, Madison, WI) based on the manufacture’s instruction. Results were normalized as percentage of cell viability in control astrocytes. CTL, control. * denotes p < 0.05, ** denotes p < 0.01, *** denotes p < 0.001 as compared to the control group without peptide treatment (ANOVA, N = 3).

[2] = tested on: ZIKV strain MR766; assay: ZIKV RNA in infected Vero cells, peptide pre-treatment (real-time RT-PCR); assay type: cell-based, Zika virus; settings: 2 h before ZIKV MOI 0.5, re-treated at 24 h, 48-h post-infection, RT-PCR normalized to GAPDH, N = 3
Experimental: Human fetal astrocytes were derived from a single-cell isolation process of fetal brain tissues as previously described ([25], [26]). Briefly, dissociated brain tissue was incubated with 0.25% trypsin for 30 min, followed by neutralization with 10% fetal bovine serum (FBS), and further dissociated by trituration. The single-cell suspension was cultured as adherent cells in DMEM/F12 (Thermo Fisher Scientific, Waltham, MA, USA), supplemented with 10% FBS, penicillin (50 units/mL), and streptomycin (50 µg/mL) (Thermo Fisher Scientific). […] Vero cells (ATCC, CCL-81), an African green monkey kidney cell line, were maintained in Dulbecco’s Modified Eagle Medium (DMEM) with 5% FBS. Experiments with ZIKV were performed exclusively inside a BioSafety Level 2 (laboratory). All procedures utilized in this study were approved by the Institutional Biosafety Committee (IBC 16-05-013BL2) and followed biosafety level II practices as shown in National Institutes of health (NIH) Guideline Appendix G-II-B. ZIKV strain MR766 (Uganda, 1947) was obtained from ZeptoMetrix Corp., Buffalo, NY, USA, and propagated in Vero cells. ZIKV infection of the Vero cells and fetal astrocytes was previously characterized ([27]) and all infections in the current studies were at the MOI of 0.5.
Total mRNA was isolated with TRIzol Reagent (Thermo Fisher Scientific) and RNeasy Mini Kit (QIAGEN Inc., Valencia, CA, USA) following the manufacturer’s recommendations. Two real-time RT-PCR methods were used for the current studies. First, SYBR Green-based RT-PCR assay was used to determine intracellular ZIKV RNA in Vero cells. For this assay, reverse transcription was performed using Verso cDNA synthesis Kit (Thermo Fisher Scientific) and 1 µg of total RNA in a 15-µL final volume. The RT-PCR analyses were performed using 7.5-µL SYBR Green PCR Master Mix (Thermo Fisher Scientific) with 0.5-µL cDNA, 1.5-µL H2O, 5.5-µL oligonucleotide primer pairs at 10 µM. […] GG-3. PCR program: 1, 50°C for 2 min; 2, 95°C for 2 min; 3, 95°C for 15 s; 4, specific annealing temperature for 15 s; 5, 72°C for 1 min. Steps 2–4 were repeated 40 times. All samples were amplified in triplicate for analysis. Relative ZIKV RNA levels were determined and standardized with a GAPDH internal control using comparative ΔΔCT method ([35]). Second, TaqMan-based RT-PCR assay was used to determine intracellular ZIKV RNA and other gene expressions in Figures 3–6 and extracellular ZIKV RNA in Figure 3. The TaqMan assay was performed in a StepOne^TM Real-Time PCR system (Thermo Fisher Scientific). Primers used for TaqMan real-time RT-PCR were all from the Thermo Fisher Scientific, which included ZIKV (forward sequence: 5-[…]-3, reverse sequence: 5- […]-3, and probe sequence: 5′-[…]-3), IFN-α2 (Hs00265051_s1), IFN-β1 (Hs01077958_s1), eukaryotic 18-s rRNA (Hs99999901_s1), β-actin (Hs99999903_m1), and GAPDH (Catalog number: 4310884E). Relative ZIKV mRNA levels were determined and standardized with a GAPDH or 18-s rRNA endogenous control using comparative ΔΔCT method ([35]). […] For ZIKV in supernatants, RNA was extracted from the supernatants through TRIzol™ LS Reagent (Thermo Fisher Scientific, 10296028) following the manufacturer’s manual. […] Quantitative genomic RNA from ZIKV (NR-1838DQ, ATCC) was used as a standard to calculate viral copies.

[3] = tested on: ZIKV strain MR766; assay: ZIKV RNA in astrocytes with recombinant IFN-α or with inhibition of type-I IFN signaling; assay type: cell-based, Zika virus; settings: astrocytes pretreated 2 h with anti-IFN-α neutralizing antibodies (200 neutralizing units/mL) or 1-µM fludarabine, then AMPs 2 h, ZIKV MOI 0.5; RNA at 24 h
Experimental: Total mRNA was isolated with TRIzol Reagent (Thermo Fisher Scientific) and RNeasy Mini Kit (QIAGEN Inc., Valencia, CA, USA) following the manufacturer’s recommendations. Two real-time RT-PCR methods were used for the current studies. First, SYBR Green-based RT-PCR assay was used to determine intracellular ZIKV RNA in Vero cells. For this assay, reverse transcription was performed using Verso cDNA synthesis Kit (Thermo Fisher Scientific) and 1 µg of total RNA in a 15-µL final volume. The RT-PCR analyses were performed using 7.5-µL SYBR Green PCR Master Mix (Thermo Fisher Scientific) with 0.5-µL cDNA, 1.5-µL H2O, 5.5-µL oligonucleotide primer pairs at 10 µM. […] GG-3. PCR program: 1, 50°C for 2 min; 2, 95°C for 2 min; 3, 95°C for 15 s; 4, specific annealing temperature for 15 s; 5, 72°C for 1 min. Steps 2–4 were repeated 40 times. All samples were amplified in triplicate for analysis. Relative ZIKV RNA levels were determined and standardized with a GAPDH internal control using comparative ΔΔCT method ([35]). […] Relative ZIKV mRNA levels were determined and standardized with a GAPDH or 18-s rRNA endogenous control using comparative ΔΔCT method ([35]). […] Quantitative genomic RNA from ZIKV (NR-1838DQ, ATCC) was used as a standard to calculate viral copies.

Structure (SMILES)	EC50 at 48 h [1] [µM]	ZIKV RNA compared with untreated controls ([2]; peptide 0.4 µM)	ZIKV RNA compared with untreated controls ([2]; peptide 2 µM)	Effect on GF-17- and BMAP-18-mediated ZIKV inhibition [3]
CC[C@@H](C)[C@@H](NC(=O)CN)C(=O)N[C@H](CCCCN)C(=O)N[C@H](CCC(=O)O)C(=O)N[C@H](Cc1ccccc1)C(=O)N[C@H](CCCCN)C(=O)N[C@H](CCCNC(=N)N)C(=O)N[C@@H](C(=O)N[C@@H](C(=O)N[C@H](CCC(N)=O)C(=O)N[C@H](CCCNC(=N)N)C(=O)N[C@@H](C(=O)N[C@H](CCCCN)C(=O)N[C@H](CC(=O)O)C(=O)N[C@H](Cc1ccccc1)C(=O)N[C@H](CC(C)C)C(=O)N[C@H](CCCNC(=N)N)C(=O)N[C@H](CC(N)=O)C(=O)N[C@H](CC(C)C)C(=O)N[C@@H](C(=O)O)C(C)C)[C@H](C)CC)C(C)C)[C@H](C)CC [GI-20D-form]	4	significantly decreased ZIKV RNA	significantly decreased ZIKV RNA	–
CC[C@H](C)[C@H](N)C(=O)N[C@@H](CCCCN)C(=O)N[C@@H](Cc1c[nH]c2ccccc12)C(=O)N[C@@H](CCCCN)C(=O)N[C@@H](CCCCN)C(=O)N[C@@H](CC(C)C)C(=O)N[C@@H](CC(C)C)C(=O)N[C@@H](CCCNC(=N)N)C(=O)N[C@@H](C)C(=O)N[C@@H](C)C(=O)N[C@@H](CCCCN)C(=O)N[C@@H](CCCNC(=N)N)C(=O)N[C@H](C(=O)N[C@@H](CC(C)C)C(=O)O)[C@@H](C)CC [DASamP2] (H-IKWKKLLRAAKRIL-OH)	> 50	–	significantly decreased ZIKV RNA	–
CC[C@H](C)[C@H](NC(=O)CN)C(=O)N[C@@H](CCCCN)C(=O)N[C@@H](CCC(=O)O)C(=O)N[C@@H](Cc1ccccc1)C(=O)N[C@@H](CCCCN)C(=O)N[C@@H](CCCNC(=N)N)C(=O)N[C@H](C(=O)N[C@H](C(=O)N[C@@H](CCC(N)=O)C(=O)N[C@@H](CCCNC(=N)N)C(=O)N[C@H](C(=O)N[C@@H](CCCCN)C(=O)N[C@@H](CC(=O)O)C(=O)N[C@@H](Cc1ccccc1)C(=O)N[C@@H](CC(C)C)C(=O)N[C@@H](CCCNC(=N)N)C(=O)N[C@@H](CC(N)=O)C(=O)N[C@@H](CC(C)C)C(=O)N[C@H](C(=O)O)C(C)C)[C@@H](C)CC)C(C)C)[C@@H](C)CC [GI-20]	> 50	significantly decreased ZIKV RNA	significantly decreased ZIKV RNA	–
Nc1nc(F)nc2c1ncn2[C@@H]1O[C@H](CO)[C@@H](O)[C@@H]1O [fludarabine, Fludarabine]	–	–	–	dampened but did not completely block
CC[C@H](C)[C@H](NC(=O)[C@H](CCCCN)NC(=O)[C@H](CCC(=O)O)NC(=O)[C@H](CCCCN)NC(=O)[C@H](CO)NC(=O)[C@H](CCCCN)NC(=O)[C@H](CCCNC(=N)N)NC(=O)[C@H](Cc1ccccc1)NC(=O)[C@H](Cc1ccccc1)NC(=O)[C@H](CC(=O)O)NC(=O)CNC(=O)[C@H](CC(C)C)NC(=O)[C@@H](N)CC(C)C)C(=O)NCC(=O)N[C@@H](CCCCN)C(=O)N[C@@H](CCC(=O)O)C(=O)N[C@@H](Cc1ccccc1)C(=O)N[C@@H](CCCCN)C(=O)N[C@@H](CCCNC(=N)N)C(=O)N[C@H](C(=O)N[C@H](C(=O)N[C@@H](CCC(N)=O)C(=O)N[C@@H](CCCNC(=N)N)C(=O)N[C@H](C(=O)N[C@@H](CCCCN)C(=O)N[C@@H](CC(=O)O)C(=O)N[C@@H](Cc1ccccc1)C(=O)N[C@@H](CC(C)C)C(=O)N[C@@H](CCCNC(=N)N)C(=O)N[C@@H](CC(N)=O)C(=O)N[C@@H](CC(C)C)C(=O)N[C@H](C(=O)N1CCC[C@H]1C(=O)N[C@@H](CCCNC(=N)N)C(=O)N[C@H](C(=O)N[C@@H](CCC(=O)O)C(=O)N[C@@H](CO)C(=O)O)[C@@H](C)O)C(C)C)[C@@H](C)CC)C(C)C)[C@@H](C)CC [LL-37, reference compound]	–	significantly decreased ZIKV RNA	significantly decreased ZIKV RNA	–
